Laboratory results as given in patent US8501792B2, “Treating cancer with desthiazolyl ritonavir” (priority 2008, dated 2013).
Like-named read-outs stand apart in the source and are kept apart here.

Assays:
Type in all cases: cell-based
[1] = tested on: non-transformed human breast epithelial line MCF10A; test: MTT proliferation assay, MCF10A; conditions: MCF-10A, 48 h
Description: M1 inhibition of proliferation of MCF7, T47D and MDA-MB-231 cell lines was studied. Cells (n=2000/well) were seeded in 96 well plates with drug or vehicle (DMSO) on D1 and after 48 h the cell number was determined by MTT assay. Each assay was performed with 8 measurements for each data point (See FIG. 1, wherein graph A corresponds to MCF7, graph B corresponds to T47D, and graph C corresponds to MDA-MB-231).
M1 inhibition of proliferation of MCF7 (ER+), T47D (ER+), MDA-MB-231 (triple negative), SKBR3 (ER−/Her2+), and the non-transformed mammary line MCF10A were studied. Cells (n=2000/well) were seeded in 96 well plates with drug or vehicle (DMSO) on D1 and after 48 h the cell number was determined by MTT assay.

[2] = tested on: MDA-MB-231 (triple negative); test: MTT proliferation assay, MDA-MB-231; conditions: Homo sapiens
Description: Cells (n=2000/well) were seeded in 96 well plates with drug or vehicle (DMSO) on D1 and after 48 h the cell number was determined by MTT assay.

T47D (ER+) = test: Annexin V-FITC/PI apoptosis flow cytometry, T47D
Description: (§1) Induction of apoptosis was studied in a MCF7 breast cancer cell line. Apoptotic cells were detected using an Annexin V-FITC/PI apoptosis detection kit (Oncagene, Boston, Mass.). After plating at 5×10^5 in a 100-mm plate, the cells were grown for 48 hours in complete medium in presence of M1, ritonavir, or vehicle (DMSO). The culture and drug exposure conditions for the apoptosis assays were done across a range of 5 to 60 μmol/L M1 and ritonavir. Cells were harvested by trypsin treatment, washed with complete medium to neutralize the trypsin, and stained with PI and Annexin V-FITC. A total of 1×10^4 events were analyzed per assay by FACScan analysis using CellQuest software (Becton Dickinson). Replicate assays were done to confirm the results.
(§2) A similar study was performed using T47D (ER+), MDA-MB-231 (triple negative) and SKBR3 (ER−/Her2+) cell lines were performed as above.

[3] = tested on: MDA-MB-231 (triple negative); test: Annexin V-FITC/PI apoptosis flow cytometry, MDA-MB-231
Description: as §1, §2

T47D cell line = test: Induction of reactive oxygen species, flow cytometry; conditions: 30 μM, 24 hours, FIG. 3
Description: Production of ROS can be analyzed using flow cytometry. For example, induction of ROS, including peroxide and superoxide, can be studied in cancer cell line. Cells can be seeded in 6 well plates (˜80,000 cells/well) using the appropriate medium, and exposed to a drug for 24 hours. Subsequently, the medium can be removed from the wells and the cells can then be exposed to DHE (2 μM in PBS) or Carboxy-H2-DCFDA (10 μM in PBS) for 30 minutes. Cells can then be trypsinized, washed two times with PBS and analyzed by flow cytometry. Additional cells can be exposed to H2O2 (250 μM) for 2 hours as a positive control for ROS production. See Example 3.
Induction of Reactive Oxygen Species (ROS), including peroxide and superoxide, were studied in the T47D cell line. Cells were seeded in 6 well plates (˜80,000 cells/well) using the appropriate medium, (DMEM with 10% FBS, 1% L-Glu, 1% Sodium Piruvate, and 1% Pen-strep) and exposed to ritonavir (30 μM) and M1 (30 μM) for 24 hours. Subsequently, the medium was removed from the wells and the cells were exposed to DHE (2 μM in PBS) or Carboxy-H2-DCFDA (10 μM in PBS) for 30 minutes. Cells were then trypsinized, washed two times with PBS and analyzed by flow cytometry. Additional cells were exposed to H2O2 (250 μM) for 2 hours as a positive control for ROS production.

T47D = test: Western blot protein depletion, T47D (Example 4)
Description: (§3) Breast cancer cell lines MDA-MB-231, T47D and SKBR3 were used to study depletion of Hsp90 by M1 and ritonavir. Cells were incubated for 48 hours with 1) ritonavir (R) at its IC50 (20 μM for T47D and 40 μM for MDA-MB-231); 2) M1 at ritonavir's IC50; or DMSO (control). Cell extracts were made according to the method of Srirangam et al., Clin Cancer Res. 2006 Mar. 15; 12(6):1883-96. Briefly, nearly confluent cell monolayers were treated with drug or vehicle (DMSO) for 24 or 48 h. Cells were washed with PBS on ice and scraped in a RIPA buffer containing protease inhibitors including MG-132 and phosphatase inhibitors. The cell lysate protein content was determined by μBCA and equal amounts of protein were loaded per lane. Gel electrophoresis by SDS PAGE was performed with equal protein loading per lane (usually 30 μg) and the separated proteins were transferred to 0.45 μm nitrocellulose filters. The transfer was verified by Ponceau stain of the nitrocellulose filters. The filters were probed by chemiluminescent blotting and then exposed to X-ray film. The signal from the protein of interest was normalized to the GAPDH signal. Student's t-test was used to determine the significance of differences.

MDA-MB-231 = test: Western blot protein depletion, MDA-MB-231 (Example 4)
Description: as §3

SKBR3 = test: Western blot protein depletion, SKBR3 (Example 4)
Description: as §3

T47D (ER+ line) = test: Western blot densitometry, T47D (Example 17); set-up: % Reduction, Total Akt / % Reduction, Phospho Akt / % Reduction, ER-α: concentration or dose not given beside the values; conditions: 24 or 48 hours
Description: An ER^+ line, T47D, was treated with M1 or ritonavir for 24 or 48 hours. The cells were grown to confluence and treated with drug or DMSO vehicle. The cells were scraped on ice into RIPA buffer containing protease inhibitors including MG-132 and phosphatase inhibitors as published (see Srirangam et al. Clincal Ca Research 2006). The RIPA lysate was subjected to electrophoresis, blotted and probed with the appropriate antibodies.

Row | Structure (SMILES) | IC50 ([1]; Example 1, MTT after 48 h) | IC50 ([1]; Example 6, MTT after 48 h) | fraction of apoptotic cells (T47D (ER+)) | fraction of apoptotic cells [3] | ROS production (T47D cell line) | G1/S regulatory protein Cyclin D1 (T47D; P<0.05) | G1/S regulatory protein Cyclin D1 (MDA-MB-231; P<0.05) | G1/S regulatory protein Cyclin D1 (SKBR3) | reducing Hsp90 levels (SKBR3) | % Reduction, CDK2 (T47D (ER+ line)) | % Reduction, CDK4 (T47D (ER+ line)) | % Reduction, CDK6 (T47D (ER+ line)) | % Reduction, Cyclin D1 (T47D (ER+ line)) | % Reduction, ER-α (T47D (ER+ line)) | % Reduction, Hsp90 (T47D (ER+ line)) | % Reduction, Phospho Akt (T47D (ER+ line)) | % Reduction, Total Akt (T47D (ER+ line)) | other results
1 | CC(C)c1nc(CN(C)C(=O)NC(C(=O)NC(Cc2ccccc2)CC(O)C(N)Cc2ccccc2)C(C)C)cs1 (stereo not drawn) [M1, desthiazolyl ritonavir] | 50 µM | 45 µM | 20% | 40% | induces ROS production | reduced | reduced | reduced | neither drug reduced | 51.02% | 2.23% | 21.05% | 45.64% | 56.41% | 82.70% | 56.36% | 56.57% | IC50 ([2]; Example 6, MTT after 48 h, read-out: IC50, proliferation): 22 µM; reducing Hsp90 levels (T47D; 48 hours, at ritonavir's IC50 (20 μM)): more potent than ritonavir; reducing ER alpha (T47D; versus ritonavir, P<0.05): more potent; reducing total Akt, phospho-Akt, GSK3beta, c-src, and survivin (T47D; versus ritonavir, P<0.05): more potent; reducing Hsp90 levels (MDA-MB-231; 48 hours, at ritonavir's IC50 (40 μM)): more potent than ritonavir; reducing total Akt, phospho-Akt, GSK3beta, c-src, and survivin (MDA-MB-231; versus ritonavir, P<0.05): more potent; reducing total Akt, phospho-Akt, GSK3beta, c-src, and survivin (SKBR3; versus ritonavir, P<0.05): more potent
2 | CC(C)c1nc(CN(C)C(=O)N[C@H](C(=O)N[C@@H](Cc2ccccc2)C[C@H](O)[C@H](Cc2ccccc2)NC(=O)OCc2cncs2)C(C)C)cs1 [ritonavir] | 35 µM | 31 µM | 13% | 20% | does not | reduced | reduced | only M1 reduced | neither drug reduced | 49.91% | 23.99% | 11.64% | 42.87% | 33.24% | 48.3% | 9.98% | 5.04% | IC50 ([2]; as quoted in Example 4, read-out: IC50): 40 µM
